“And” between values parts separate entries of the source, which are not always exact repeats. Identical values can stand only once. Toxic doses and inconclusive results are not listed. Rule for the calls: active = survival T/C of 150% or more; inactive = T/C below 125% in these data.
Tested on: P388 leukemia ip, CD2F1 mice, survival T/C
Experiment: NCI In Vivo Anticancer Drug Screen. Data for tumor model P388 Leukemia (intraperitoneal) in CD2F1 (CDF1) mice
Conditions: endpoint: median survival time, higher = longer survival
Procedure, shortened: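 Mice carrying the transplanted tumor received test compound or vehicle. Survival was recorded in each group, and the value is the treated-group measurement divided by that of the vehicle-treated control group.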

[1] = dose: 50.0 mg/kg/injection, schedule: Q01DX009 (ip), vehicle: saline
[2] = dose: 100.0 mg/kg/injection, schedule: Q01DX009 (ip), vehicle: saline
[3] = dose: 60.0 mg/kg/injection, schedule: Q01DX005 (ip), vehicle: saline with Tween-80
[4] = dose: 120.0 mg/kg/injection, schedule: Q01DX005 (ip), vehicle: saline with Tween-80
[5] = dose: 240.0 mg/kg/injection, schedule: Q01DX005 (ip), vehicle: saline with Tween-80
[6] = dose: 50.0 mg/kg/injection, schedule: Q01DX009 (ip), vehicle: saline with Tween-80
[7] = dose: 100.0 mg/kg/injection, schedule: Q04DX003 (ip), vehicle: saline with Tween-80
[8] = dose: 12.5 mg/kg/injection, schedule: Q01DX009 (ip), vehicle: saline with Tween-80
[9] = dose: 25.0 mg/kg/injection, schedule: Q01DX009 (ip), vehicle: saline with Tween-80
[10] = dose: 50.0 mg/kg/injection, schedule: Q01DX005 (ip), vehicle: saline with Tween-80
[11] = dose: 100.0 mg/kg/injection, schedule: Q01DX005 (ip), vehicle: saline with Tween-80
[12] = dose: 200.0 mg/kg/injection, schedule: Q01DX005 (ip), vehicle: saline with Tween-80
[13] = dose: 12.5 mg/kg/injection, schedule: Q01DX009 (ip), vehicle: saline
[14] = dose: 25.0 mg/kg/injection, schedule: Q01DX009 (ip), vehicle: saline
[15] = dose: 50.0 mg/kg/injection, schedule: Q01DX005 (ip), vehicle: Klucel (hydroxypropylcellulose) (HPC)
[16] = dose: 100.0 mg/kg/injection, schedule: Q01DX005 (ip), vehicle: Klucel (hydroxypropylcellulose) (HPC)
[17] = dose: 200.0 mg/kg/injection, schedule: Q01DX005 (ip), vehicle: Klucel (hydroxypropylcellulose) (HPC)
[18] = dose: 25.0 mg/kg/injection, schedule: Q01DX005 (ip), vehicle: Klucel (hydroxypropylcellulose) (HPC)

Measured: T/C

C=C1CC(OC(=O)C(C)C)C2C(=C)C(=O)O[C@@H]2C2C(=C)[C@@H](O)CC12 (stereo partly drawn)
inactive: dose: 20.0 mg/kg/injection, schedule: Q01DX005 (ip), vehicle: saline with Tween-80 102 % of control | dose: 40.0 mg/kg/injection, schedule: Q01DX005 (ip), vehicle: saline with Tween-80 106 % of control | dose: 80.0 mg/kg/injection, schedule: Q01DX005 (ip), vehicle: saline with Tween-80 115 % of control

CN1CCCC(O)(C(=O)c2ccccc2)C1 (stereo not drawn)
inactive: [1] 108 % of control | [2] 90 % of control | dose: 100.0 mg/kg/injection, schedule: Q04DX003 (ip), vehicle: Klucel (hydroxypropylcellulose) (HPC) 102 % of control | dose: 200.0 mg/kg/injection, schedule: Q01DX009 (ip), vehicle: saline 90 % of control | dose: 200.0 mg/kg/injection, schedule: Q04DX003 (ip), vehicle: Klucel (hydroxypropylcellulose) (HPC) 104 % of control

S=C(S)n1nc(-c2ccccc2)c(N=Nc2ccc(Br)cc2)c1-c1ccccc1
inactive: dose: 100.0 mg/kg/injection, schedule: Q04DX002 (ip), vehicle: Klucel (hydroxypropylcellulose) (HPC) 107 % of control | dose: 200.0 mg/kg/injection, schedule: Q04DX002 (ip), vehicle: Klucel (hydroxypropylcellulose) (HPC) 110 % of control | dose: 400.0 mg/kg/injection, schedule: Q04DX002 (ip), vehicle: Klucel (hydroxypropylcellulose) (HPC) 113 % of control

CC1(C)OCC2CCC=C21 (stereo not drawn)
inactive: [3] 92 % of control | [4] 99 % of control | [5] 97 % of control

O=C1C=C(O/C=C/C(C(F)(F)F)C(F)(F)F)C(=O)c2ccccc21
inactive: [6] 115 % of control | dose: 50.0 mg/kg/injection, schedule: Q04DX003 (ip), vehicle: saline with Tween-80 91 % of control | [7] 95 % of control

O=C(Oc1cc(Cl)ccc1Cl)c1ccccc1
inactive: [8] 109 % of control and 96 % of control | [9] 100 % of control and 98 % of control | [6] 100 % of control and 102 % of control | dose: 100.0 mg/kg/injection, schedule: Q01DX009 (ip), vehicle: saline with Tween-80 102 % of control and 91 % of control

c1ccc2c(c1)NC(c1ccc3c(c1)Sc1cc(C4Nc5ccccc5N4)ccc1O3)N2
inactive: [10] 95 % of control | [11] 102 % of control | [12] 100 % of control

C[C@H](CSC(=O)c1ccccc1)C(=O)N1c2ccccc2C[C@H]1C(=O)O
inactive: dose: 60.0 mg/kg/injection, schedule: Q01DX005 (ip), vehicle: saline + Tween-80 + alcohol 102 % of control | dose: 120.0 mg/kg/injection, schedule: Q01DX005 (ip), vehicle: saline + Tween-80 + alcohol 102 % of control | dose: 240.0 mg/kg/injection, schedule: Q01DX005 (ip), vehicle: saline + Tween-80 + alcohol 104 % of control

O=C(O)c1c(Cl)c(Cl)c(Cl)c(Cl)c1-c1c2cc(I)c(=O)c(I)c-2oc2c(I)c(O)c(I)cc12
inactive: [13] 103 % of control | [14] 88 % of control | [10] 92 % of control | [1] 88 % of control and 91 % of control | [11] 86 % of control | [2] 97 % of control

CCCCCCCCCc1ccc(OCCOCCOCCOCCOCCOCCOCCOCCOCCOC(C)N2CCCC2=O)cc1 (stereo not drawn)
inactive: dose: 6.25 mg/kg/injection, schedule: Q01DX009 (ip), vehicle: saline with Tween-80 110 % of control | [8] 115 % of control | [9] 120 % of control

CCOc1cc(/C=N/NC(=O)N(c2ccccc2)c2ccccc2)ccc1O
inactive: [10] 88 % of control | [11] 88 % of control

CCOC(=O)C1=C(O)C(=O)NC1c1ccccc1 (stereo not drawn)
inactive: dose: 15.0 mg/kg/injection, schedule: Q01DX005 (ip), vehicle: Klucel (hydroxypropylcellulose) (HPC) 111 % of control | dose: 30.0 mg/kg/injection, schedule: Q01DX005 (ip), vehicle: Klucel (hydroxypropylcellulose) (HPC) 102 % of control | dose: 60.0 mg/kg/injection, schedule: Q01DX005 (ip), vehicle: Klucel (hydroxypropylcellulose) (HPC) 102 % of control and 107 % of control

O=[N+]([O-])c1cc2c(ccc3cc(Br)ccc32)o1
inactive: [15] 87 % of control | [16] 92 % of control | [17] 92 % of control

C=CCOC1C=C(C)C(=O)O1 (stereo not drawn)
inactive: dose: 41.5 mg/kg/injection, schedule: Q01DX005 (ip), vehicle: saline with Tween-80 100 % of control | dose: 83.0 mg/kg/injection, schedule: Q01DX005 (ip), vehicle: saline with Tween-80 103 % of control | dose: 166.0 mg/kg/injection, schedule: Q01DX005 (ip), vehicle: saline with Tween-80 109 % of control

O=C1NC(=O)C(O)(C2=C(O)CCCC2=O)C(=O)N1
inactive: [10] 99 % of control | [11] 103 % of control | [12] 94 % of control

CCCOc1ccc(C(C)c2cc3c(cc2OC)OCO3)cc1 (stereo not drawn)
inactive: [18] 100 % of control | [15] 103 % of control | [16] 103 % of control | [17] 98 % of control

[O-][n+]1c2c(cc3ccccc31)Cc1ccccc1-2
inactive: [15] 109 % of control | [16] 101 % of control | [17] 106 % of control

COc1ccc(O)c(CN2CCN(Cc3cc(OC)ccc3O)CC2)c1
inactive: dose: 15.0 mg/kg/injection, schedule: Q01DX005 (ip), vehicle: saline with Tween-80 91 % of control | dose: 30.0 mg/kg/injection, schedule: Q01DX005 (ip), vehicle: saline with Tween-80 86 % of control

COc1cc(CC(OC)OC)no1
inactive: [3] 102 % of control | [4] 103 % of control | [5] 102 % of control

O=[N+]([O-])c1nc(-[n+]2ccccc2)[n-]c1Br
inactive: dose: 100.0 mg/kg/injection, schedule: Q04DX003 (ip), vehicle: saline 98 % of control | dose: 200.0 mg/kg/injection, schedule: Q04DX003 (ip), vehicle: saline 100 % of control | dose: 400.0 mg/kg/injection, schedule: Q04DX003 (ip), vehicle: saline 95 % of control

COc1cc2c(cc1OC)C1C(=O)c3c(O)cc4c(c3OC1CO2)C=CC(C)(C)O4 (stereo not drawn)
inactive: dose: 12.5 mg/kg/injection, schedule: Q01DX005 (ip), vehicle: Klucel (hydroxypropylcellulose) (HPC) 98 % of control | [18] 100 % of control | [15] 107 % of control | [16] 107 % of control | [17] 111 % of control | dose: 400.0 mg/kg/injection, schedule: Q01DX005 (ip), vehicle: Klucel (hydroxypropylcellulose) (HPC) 111 % of control

CC([CH2][Sn]([CH3])([Cl])[c]1ccccc1)c1ccccc1 (stereo not drawn)
inactive: dose: 12.5 mg/kg/injection, schedule: Q04DX003 (ip), vehicle: saline 98 % of control | dose: 25.0 mg/kg/injection, schedule: Q04DX003 (ip), vehicle: saline 103 % of control | dose: 50.0 mg/kg/injection, schedule: Q04DX003 (ip), vehicle: saline 94 % of control | [7] 98 % of control

S=C(S)N1CCCCC1
inactive: dose: 3.13 mg/kg/injection, schedule: Q01DX009 (ip), vehicle: saline 88 % of control | dose: 6.25 mg/kg/injection, schedule: Q01DX009 (ip), vehicle: saline 91 % of control | [13] 86 % of control | [9] 91 % of control | [14] 86 % of control

Nc1nc(N)c(SC(F)(F)F)c(Cl)n1
inactive: [3] 100 % of control | [4] 103 % of control

Nc1ccccc1N=C(CC(=O)c1ccccc1)C(F)(F)F
inactive: dose: 100.0 mg/kg/injection, schedule: Q04DX002 (ip), vehicle: saline 99 % of control | dose: 200.0 mg/kg/injection, schedule: Q04DX002 (ip), vehicle: saline 101 % of control | dose: 400.0 mg/kg/injection, schedule: Q04DX002 (ip), vehicle: saline 97 % of control

COc1ccccc1C1c2cc3c(cc2OC(C)(O)C1C)OCO3 (stereo not drawn)
inactive: [10] 100 % of control | [11] 97 % of control | [12] 96 % of control

Reference: PubChem BioAssay AID330 (DTP/NCI, 2004)
